Positions of bridges follow the written chain, without caps; N, C: chain ends. Residues, ends and D or L forms follow the SMILES beside them.
Assays:
rOTR = target: T1, rOTR (Rattus norvegicus, UniProt P70536); experiment: Luciferase reporter gene assay, rat OT; format: cell-based; settings: read-out: % MPE
T1 construct: expressed in transfected cells
T1 sequence (P70536 1-388): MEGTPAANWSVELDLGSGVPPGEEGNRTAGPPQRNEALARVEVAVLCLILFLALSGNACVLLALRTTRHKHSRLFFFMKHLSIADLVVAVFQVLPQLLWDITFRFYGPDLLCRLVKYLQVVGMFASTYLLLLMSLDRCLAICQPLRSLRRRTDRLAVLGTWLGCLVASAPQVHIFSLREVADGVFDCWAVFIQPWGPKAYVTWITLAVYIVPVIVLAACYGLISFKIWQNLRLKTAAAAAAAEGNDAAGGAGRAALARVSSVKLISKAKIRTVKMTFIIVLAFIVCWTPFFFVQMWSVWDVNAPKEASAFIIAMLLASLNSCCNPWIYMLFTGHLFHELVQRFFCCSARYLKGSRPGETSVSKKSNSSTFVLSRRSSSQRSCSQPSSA
Experimental: (§1) Cell Lines. Studies were conducted with cell lines expressing rat (r) or human (h) Via, V1b, V2, or OT receptors. For the experiments with human receptors, human embryonic kidney (HEK)-flp-in cells stably expressing the lacZ-Zeocin™ fusion gene were used for expression of hV1a and hV1b. These cells were designed for use with the Flp-In™ expression vector containing the gene of interest (here hV1a or hV1b) and the Flp recombinase expression plasmid, pOG44. For hV2 and hOTR, HEK-293 cells transiently expressing hV2 were used.
(§2) Functional Cell-Based Assays.

blood lactate = experiment: Blood lactate concentration, anesthetized Wistar rats, IV infusion; format: in vivo, rat
Experimental: This study was performed over multiple experiments using a total of 48 adult male Wistar rats. […] Compounds were infused via an IV catheter at six sequentially increasing doses. A group of vehicle-administered animals received vehicle throughout the study and data were reported from intervals timed analogously with the dose-response in compound 1-administered animals.
(§3) On the day of experimentation animals were anesthetized and instrumented. A tracheostomy was performed to allow assisted respiration and three catheters were placed. Laser Doppler probes were positioned on a shaved portion of the animal's lower abdominal skin for blood-flow measurements. Ventilation was initiated, and baseline readings for the primary parameter of skin blood flow (SBF) were recorded. Readings for the secondary parameters were also recorded: (1) blood lactate concentration, (2) mean arterial pressure (MAP), and (3) blood pH. Data collection was performed continuously for SBF and MAP using NOTOCORD-hem™ (Instem), and blood samples were taken at each compound dose and immediately analyzed using an i-STAT® meter.

skin blood flow (SBF) = experiment: Skin blood flow (SBF), laser Doppler, anesthetized Wistar rats, IV infusion; format: in vivo, rat
Experimental: This study was performed over multiple experiments using a total of 48 adult male Wistar rats. […] Compounds were infused via an IV catheter at six sequentially increasing doses.
as §3
After the final dose administration, animals were euthanized and a final SBF measurement was recorded to detect any signal from the flow probe after the animal's heart stopped beating to control for a signal not attributed to blood flow. Animal body temperature, pulse, and ventilation adequacy were monitored throughout the procedure.

rV2 receptor = target: T2, rV2 receptor (Rattus norvegicus, UniProt Q00788); experiment: Luciferase reporter gene assay, rat V2; format: cell-based; settings: read-out: % MPE
T2 construct: expressed in transfected cells; host or cells: HEK-293 cells (ATCC), transient
T2 sequence (Q00788 whole entry): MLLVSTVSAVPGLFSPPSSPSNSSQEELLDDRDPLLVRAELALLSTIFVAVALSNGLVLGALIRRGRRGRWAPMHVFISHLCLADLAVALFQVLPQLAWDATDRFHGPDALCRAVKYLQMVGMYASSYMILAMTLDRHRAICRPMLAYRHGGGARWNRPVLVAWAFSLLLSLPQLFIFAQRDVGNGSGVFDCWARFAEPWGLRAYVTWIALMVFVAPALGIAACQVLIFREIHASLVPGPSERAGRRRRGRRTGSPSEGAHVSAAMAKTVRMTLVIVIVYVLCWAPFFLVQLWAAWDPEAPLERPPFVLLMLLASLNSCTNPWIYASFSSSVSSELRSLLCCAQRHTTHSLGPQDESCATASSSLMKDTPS
Experimental: as §1, §2

[1] = system: V1a, V1b, and V2 receptors; settings: cited from earlier work
[2] = system: methionine/choline-deficient (MCD) diet rats; experiment: ΔPP in methionine/choline-deficient (MCD) diet rats; format: in vivo, rat; settings: 100 μg/kg, IA, MCD diet rats
[3] = system: mean arterial pressure (MAP); experiment: Telemetry: ΔMAP in cynomolgus monkeys, Compound 1 (SC) versus terlipressin (IV); format: in vivo, cynomolgus monkey
Experimental: The in-life portion of the study was performed over multiple dosing sessions using six non-naive adult male cynomolgus monkeys. Animals were previously (3-4 weeks before study start) instrumented with indwelling pressure telemetry devices and trained to be restrained in chairs. Animals had access to food and drinking water ad libitum.
Stock solutions were diluted in saline on the day of administration. Animals with indwelling pressure telemetry devices were trained to be restrained in chairs for 8-h periods.
On the day of administration, animals were restrained, and telemetric measurements were collected continuously starting ≥2 h before administration. Baseline values of arterial pressure (diastolic and systolic), heart rate, and body temperature were obtained.
The data reported herein were collected over 19 dosing sessions of four animals each, using a total of six monkeys. Animals were repeat dosed in a crossover design with at least one animal receiving vehicle for each round; the animal receiving vehicle was varied between rounds. A 48- to 72-h washout period was used between dosing sessions. Animals were observed by camera for ~1 h before dosing (covering the baseline period) and up to 3 h after dosing.

[4] = system: methionine/choline-deficient (MCD) diet rats; experiment: MAP / ΔMAP in methionine/choline-deficient (MCD) diet rats; format: in vivo, rat; settings: for Δ MAP (mean): 100 μg/kg, IA, MCD diet rats
Experimental: The terlipressin dose was 100 μg/kg.
Data were evaluated as change […] from baseline.

## NC(=O)CC[C@@H]1NC(=O)[C@H](Cc2ccccc2)NC(=O)[C@H](Cc2ccc(O)cc2)NC(=O)[C@@H](N)CSSC[C@@H](C(=O)N2CCC[C@H]2C(=O)N[C@@H](CCCN=C(N)N)C(=O)NCC(N)=O)NC(=O)[C@H](CC(N)=O)NC1=O [AVP, arginine vasopressin, reference compound]
rOTR
  Emax: 82%
Blood lactate; 3 pmoL/kg/min IV
  blood lactate concentration: 1.34 mM
Blood lactate; 600 pmoL/kg/min IV
  blood lactate concentration: 4.27 mM
Blood lactate; IV
  increase in blood lactate levels: ≥ 2 fold
Blood lactate; IV, up to maximum dose tested
  effect on blood lactate concentration: significantly elevated
Skin blood flow (SBF)
  SBF ED50: 12.6 pmol/kg/min
  decrease in skin blood flow, approximate maximum: about 90%
  greatest percent change from baseline in skin flow: −89.5%
rV2 receptor
  Emax: 98%

## NCCCC[C@H](NC(=O)[C@@H]1CCCN1C(=O)[C@@H]1CSSC[C@H](N)C(=O)N[C@@H](Cc2ccc(O)cc2)C(=O)N[C@@H](Cc2ccccc2)C(=O)N[C@@H](CCC(N)=O)C(=O)N[C@@H](CC(N)=O)C(=O)N1)C(=O)NCC(N)=O [Lysine vasopressin (LVP), Lysine vasopressin]
[1]; V1a, V1b, and V2 receptors
  receptor agonism type: full agonist

## NCCCC[C@H](NC(=O)[C@@H]1CCCN1C(=O)[C@@H]1CSSC[C@H](NC(=O)CNC(=O)CNC(=O)CN)C(=O)N[C@@H](Cc2ccc(O)cc2)C(=O)N[C@@H](Cc2ccccc2)C(=O)N[C@@H](CCC(N)=O)C(=O)N[C@@H](CC(N)=O)C(=O)N1)C(=O)NCC(N)=O [Terlipressin, reference compound] (H-GGGCYFQNCPKG-NH2; disulfide 4-9)
[1]; gastrointestinal disorders, sepsis, respiratory failure
  serious adverse events: associated with serious adverse events
[1]; non-selective full agonist, continuous i.v. infusion
  effect on ascites formation: reduced ascites formation
[1]; plus albumin, HRS-AKI, versus placebo
  short-term mortality: reduces short-term mortality
[2]; 0 min
  Δ PP (mean): 0.0 mmHg
[2]; 1 min
  Δ PP (mean): −1.5 mmHg
[2]; 2 min
  Δ PP (mean): −2.1 mmHg
[2]; 3 min
  Δ PP (mean): −2.3 mmHg
[2]; 5 min
  Δ PP (mean): −2.4 mmHg
[2]; 7 min
  Δ PP (mean): −2.5 mmHg
[2]; 10 min
  Δ PP (mean): −2.4 mmHg
[2]; 15 min
  Δ PP (mean): −2.5 mmHg
[2]; 20 min
  Δ PP (mean): −2.6 mmHg
[2]; 30 min
  Δ PP (mean): −2.5 mmHg
[2]; 60 min
  Δ PP (mean): −2.8 mmHg
[2]; 90 min
  Δ PP (mean): −0.8 mmHg
[3]; IV 0.03 mg/kg
  average increase in MAP, 30 min to 5 h: 6.0 mmHg
[3]; IV 0.03 mg/kg (vehicle 22.2)
  maximum MAP values (increase from baseline): 29.6±3.6 mmHg
[3]; IV 0.09 mg/kg
  average increase in MAP, 30 min to 5 h: 5.8 mmHg
[3]; IV 0.09 mg/kg (vehicle 22.2)
  maximum MAP values (increase from baseline): 29.9±6.2 mmHg
[3]; IV 0.17 mg/kg
  average increase in MAP, 30 min to 5 h: 14.6 mmHg
[3]; IV 0.17 mg/kg (vehicle 22.2)
  maximum MAP values (increase from baseline): 50.8±5.6 mmHg
[3]; IV 0.34 mg/kg
  average increase in MAP, 30 min to 5 h: 14.7 mmHg
[3]; IV 0.34 mg/kg (vehicle 22.2)
  maximum MAP values (increase from baseline): 41.2±7.5 mmHg
[3]; IV, all groups
  time of maximum ΔMAP: 5 to 30 min
  ΔMAP by 150 min: negligible
[4]; 0 min
  Δ MAP (mean): 0.0 mmHg
[4]; 1 min
  Δ MAP (mean): 6.1 mmHg
[4]; 10 min
  Δ MAP (mean): 32.0 mmHg
[4]; 90 min
  Δ MAP (mean): 5.2 mmHg
[4]; intra-arterial, FIG. 34
  rapid increase in MAP, up to: about 35 mmHg

— patent publication US20260315609A1, “MIXED VASOPRESSIN RECEPTOR AGONIST-ANTAGONIST FOR TREATING END-STAGE LIVER DISEASE AND COMPLICATIONS ASSOCIATED THEREOF” (FERRING B.V., priority 2022, published 2026)
